Patent US20260317319A1, “NOVEL ERGOLINES AND METHODS OF TREATING MOOD DISORDERS” (Gilgamesh Pharma Inc., priority 2023, published 2026)
“Also recorded” adds a separate entry of the source. Like-named read-outs stand apart in the source and are kept apart here.

Assays:
Sprague Dawley rats = experiment: Forced swim test (FST) in rats; assay type: in vivo, rat; settings: for Time Immobile: rat FST, 10% DMSO in saline; for Time Immobile / effect on immobility in FST: 23.5 hours after a single dose; for effect on immobility in FST: rat
Description: Compound 1 induced antidepressant-like effects in the forced swim test (FST) in rats with a 23.5-h pre-treatment time (FIG. 2).
Animals. Male Sprague Dawley rats, aged 9-10 weeks, were used in this experiment. Animals were housed in groups of 2 under controlled temperature (22±3° C.) and relative humidity (30-70%) conditions, with 12-hour light/dark cycles, and with ad libitum food and water. This study was carried out in strict accordance with the requirements of the Committee for the Purpose of Control and Supervision of Experiments on Animals (CPCSEA), India. All efforts were made to minimize suffering.
Forced Swim Test (FST). […] Rats were handled for about 2 min daily for the 5 days prior to the beginning of the experimental procedure. On the first day of the experiment (i.e., Day 0), post randomization, training swim sessions (Swim 1) were conducted between 12:00 and 18:00 h with all animals by placing rats in individual glass cylinders (46 cm tall×20 cm in diameter) containing 23-25° C. water 30 cm deep for 15 minutes. At the conclusion of Swim 1, animals were dried with paper towels, placed in heated drying cages for 15 minutes, and then returned to their home cages. Animals were then administered the appropriate drug or vehicle treatment(s), as described above. For clarity, a compound administration time of 23.5 h before Swim 2 means 0.5 h after the start of Swim 1 and 0.25 h after the completion of Swim 1 (i.e., immediately after return to the home cage). On Day 1 (i.e., 24 h after start of Swim 1), animals performed the test swim (Swim 2) for a period of 5 min but otherwise under the same conditions as Swim 1. During all swim sessions, the water was changed between each animal.
Behavioral scoring was conducted by observers who were blind to the treatment groups. Animals were continuously observed during Swim 2 and the total time spent engaging in the following behaviors was recorded: immobile, swimming, and climbing. A rat was judged to be immobile when it remained floating in the water without struggling and was making only those movements necessary to keep its head above water. A rat was judged to be swimming when it made active swimming motions, more than necessary to merely maintain its head above water (e.g., moving around in the cylinder). A rat was judged to be climbing when it made active movements with its forepaws in and out of the water, usually directed against the walls.
Statistical Analysis. The data points shown represent the mean±standard error of the mean (SEM). Analysis was performed using GraphPad Prism 6. Comparisons between groups were performed using the one-way analysis of variance (ANOVA), followed by Dunnett's test for comparisons to vehicle.
Additional disclosed compounds were tested in the forced swim test (FST) in rats according to the procedure described in Example 58 (compounds 18 and 19 administered in 10% DMSO in saline).

in vitro = in vitro ADME, human; settings: human, microsomes, role: substrate, metabolite 83 formed in HLM, read-out: Metabolite Formation (percent formation of metabolite 83)
Description: The ability of deuteration in compound 68 to attenuate formation of metabolite 83 compared to the same transformation of the non-deuterated compound 18 was also determined.
HLM Stability. Pooled HLM from adult male and female donors (Corning 452117) were used.

C57BL/6 mice = experiment: Marble burying test (MBT) in mice; assay type: in vivo, mouse; settings: 30-minute period, compared to vehicle, FIG. 3
Description: Compound 1 produced an anxiolytic-like effect in the marble burying test (MBT) in C57BL/6 mice (FIG. 3).
Animals. Adult male C57BL/6 mice, aged 8-10 weeks (body weight 20-25 g) were used in these experiments. Animals were housed under controlled temperatures and 12-hour light/dark cycles (lights on between 07:00-19:00 h), with ad libitum food and water. This study was carried out in strict accordance with the requirements of the Committee for the Purpose of Control and Supervision of Experiments on Animals (CPCSEA), India. All efforts were made to minimize suffering.
Marble Burying Test (MBT). […] Mice were handled for about 2 min daily for the 3 days prior to the beginning of the experimental procedure. Twenty glass marbles (16 mm diameter) were placed with equal distances in a 5×4 pattern on a 5-cm layer of corn-cob bedding, with marbles at least 2 cm from the borders of the cage. The total number of marbles buried were counted in three 10-minute time bins (total 30 minutes). A marble was considered buried when it was >⅔ covered by bedding material.
Statistical Analysis. The data points shown are the mean±standard error of the mean (SEM). Analysis was performed using GraphPad Prism 6. Comparisons between groups were performed using the one-way analysis of variance (ANOVA), followed by Dunnett's test for comparisons to vehicle. […]

Structure (SMILES) | Time Immobile (Sprague Dawley rats; 0.1 mg/kg SC) | Time Immobile (Sprague Dawley rats; 0.32 mg/kg SC) | effect on immobility in FST (Sprague Dawley rats) | metabolised (in vitro; T = 0) | metabolised (in vitro; T = 5) | metabolised (in vitro; T = 15) | metabolised (in vitro; T = 30) | metabolised (in vitro; T = 45) | metabolised (in vitro; T = 60) | Time Immobile (Sprague Dawley rats; 1 mg/kg SC) | Time Immobile (Sprague Dawley rats; 3.2 mg/kg SC) | immobility time in FST (Sprague Dawley rats; highest dose, 23.5 h pre-treatment, relative to vehicle control, FIG. 2) | number of marbles buried (C57BL/6 mice)
CCN(CC)C(=O)[C@@H]1C=C2c3cccc4[nH]cc(c34)C[C@H]2N(Cc2cccc(OC)c2)C1 [Compound 18, (6aR,9R)—N,N-diethyl-7-(3-methoxybenzyl)-4,6,6a,7,8,9-hexahydroindolo[4,3-fg]quinoline-9-carboxamide] | 56.7 s | 61.2 s | maximal effects equivalent to hallucinogenic compounds and the positive control | 0.1% | 3.4% | 6.1% | 7.6% | 8.1% | 8.4% |  |  |  | 
CCN(CC)C(=O)[C@@H]1C=C2c3cccc4[nH]cc(c34)C[C@H]2N(Cc2ccc(OC)cc2)C1 [Compound 19, (6aR,9R)—N,N-diethyl-7-(4-methoxybenzyl)-4,6,6a,7,8,9-hexahydroindolo[4,3-fg]quinoline-9-carboxamide] | 76.4 s | 79.2 s | maximal effects equivalent to hallucinogenic compounds and the positive control; also recorded: apparent therapeutic action of compound 19 decreased at higher doses |  |  |  |  |  |  | 96.0 s | 166.5 s |  | 
CCCN1C[C@H](C(=O)N(CC)CC)C=C2c3cccc4[nH]cc(c34)C[C@H]21 [Compound 1, (6aR,9R)—N,N-diethyl-7-propyl-4,6,6a,7,8,9-hexahydroindolo[4,3-fg]quinoline-9-carboxamide] |  |  |  |  |  |  |  |  |  |  |  | reduced immobility time relative to vehicle control | reduced the number of marbles buried in a 30-minute period compared to vehicle
